# Results: patent US12091405B2, “Substituted pyrazole compounds as indoleamine 2,3-dioxygenase inhibitors” (Merck Sharp & Dohme LLC, priority 2018, dated 2024)
# Biological target: IDO1 (Homo sapiens, UniProt P14902)
# Assay: IDO1 Cellular Assay in HeLa Cells Stimulated with IFNγ
# Format: cell-based
# Conditions: IFNγ 100 ng/mL, 300 uM L-tryptophan, about 48 hours, fluorescence readout, read-out: IDO1 HELA Cell Assay, IC50
# Procedure: Biological Assays IDO1 Cellular Assay in HeLa Cells Stimulated with IFNγ
# HeLa cells were cultured in complete HeLa culture medium (90% EMEM, 10% heat-inactivated fetal bovine serum) and expanded to about 1×10^9 cells. The cells were then collected and frozen down at 1×10^7 cells/vial in 1 mL frozen medium (90% complete HeLa culture medium, 10% DMSO).
# Compounds to be tested were serially diluted in ten 3-fold steps in DMSO starting from 10 mM DMSO stocks in Echo low volume plate(s). Compound dilutions or DMSO alone were then dispensed from the dilution plate(s) into Greiner black 384-well assay plate(s) (catalog #781086, 50 nL/well) using an Echo 550 acoustic liquid handler (Labcyte).
# Frozen HeLa cells were thawed and transferred into HeLa assay medium (99% complete HeLa culture medium, 1% Pen/Strep) with 20 mL medium/vial of cells. The cells were spun down at 250 g in a table top centrifuge for 5 min and suspended in same volume of HeLa assay medium. The cells were then counted and adjusted to a density of 2×10^5 cells/mL in HeLa assay medium. Sterile L-tryptophan were added to the cells with final concentration of 300 uM L-tryptophan. A small aliquot (2 mL/plate) of HeLa cells were set aside and were not treated with IFNγ, to serve as the Max-E control.
# HeLa cells with and without IFNγ were dispensed to the respective wells of 384-well assay plates containing the compounds. The plates were incubated for about 48 hours at a 37° C., 5% CO2 incubator. Afterwards, 12 μL of 0.5 M methyl isonipecotate in dimethyl sulfoxide were added into each well and the plates were sealed and incubated at 37° C. without CO2 overnight. The plates were centrifuged for 1 min at 200×g. The resulting fluorescence was measured in a Spectramax plate reader (Molecular Devices) with a 400 nm excitation filter and a 510 nm emission filter.
# The fluorescence intensity of each well was corrected for the background observed in wells with non-IFNγ-treated cells and was expressed as a fraction of the intensity observed in wells of IFNγ-treated cells and DMSO only. Potencies were calculated by linear least squares fit to the four parameter logistic IC50 equation.
# Compounds disclosed herein generally have IC50 of about 0.1 nM to about 20,000 nM, or more specifically, about 1 nM to about 10,000 nM, or more specifically, about 5 nM to about 5,000 nM, or more specifically, about 10 nM to about 1,000 nM, or still more specifically, about 10 nM to about 500 nM.
# IDO1, sequence (P14902 whole entry): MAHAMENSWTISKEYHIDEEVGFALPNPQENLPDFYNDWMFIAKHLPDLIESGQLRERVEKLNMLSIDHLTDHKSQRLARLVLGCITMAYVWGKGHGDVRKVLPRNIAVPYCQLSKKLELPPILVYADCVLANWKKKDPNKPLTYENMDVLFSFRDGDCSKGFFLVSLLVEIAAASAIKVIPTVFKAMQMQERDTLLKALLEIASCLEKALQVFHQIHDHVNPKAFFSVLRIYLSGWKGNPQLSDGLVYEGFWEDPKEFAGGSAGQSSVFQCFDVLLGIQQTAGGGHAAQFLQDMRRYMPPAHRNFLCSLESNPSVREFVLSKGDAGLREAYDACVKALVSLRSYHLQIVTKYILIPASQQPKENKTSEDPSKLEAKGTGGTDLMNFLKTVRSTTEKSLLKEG
row,Structure (SMILES),IC50
1,"Cc1cccc(C2CCN(C(=O)Cn3nc(C(=O)N4CCC(OCCO)CC4)c4c3CCCC4)CC2)c1C [Example 38, 1-(4-(2,3-dimethylphenyl)piperidin-1-yl)-2-(3-(4-(2-hydroxyethoxy)piperidine-1-carbonyl)-4,5,6,7-tetrahydro-1H-indazol-1-yl)ethanone]",1.9 nM
2,"Cc1cccc(C2CCN(C(=O)Cn3nc(C(=O)N4CC[C@@H](O)[C@H](C)C4)c4c3CCC4)CC2)c1C [Example 39, 1-(4-(2,3-dimethylphenyl)piperidin-1-yl)-2-(3-((3R,4R)-4-hydroxy-3-methylpiperidine-1-carbonyl)-5,6-dihydrocyclopenta[c]pyrazol-1(4H)-yl)ethan-1-one]",1.9 nM
3,"Cc1cccc(C2CCN(C(=O)Cn3nc(C(=O)N4CCC(C)(O)CC4)c4c3CCC4)CC2)c1C [Example 40, 1-(4-(2,3-dimethylphenyl)piperidin-1-yl)-2-(3-(4-hydroxy-4-methylpiperidine-1-carbonyl)-5,6-dihydrocyclopenta[c]pyrazol-1(4H)-yl)ethan-1-one]",2.8 nM
4,"Cc1cccc(C2CCN(C(=O)Cn3nc(C(=O)N4CCC(O)CC4)c4c3CCC4)CC2)c1C [Example 41, 1-(4-(2,3-dimethylphenyl)piperidin-1-yl)-2-(3-(4-hydroxypiperidine-1-carbonyl)-5,6-dihydrocyclopenta[c]pyrazol-1(4H)-yl)ethan-1-one]",3.6 nM
5,"Cc1cccc(C2CCN(C(=O)Cn3nc(C(=O)N4CC[C@@H](O)[C@H](F)C4)c4c3CCC4)CC2)c1C [Example 45, 1-(4-(2,3-dimethylphenyl)piperidin-1-yl)-2-(3-((3R,4R)-3-fluoro-4-hydroxypiperidine-1-carbonyl)-5,6dihydrocyclopenta[c]pyrazol-1(4H)-yl)ethanone]",8.1 nM
6,"Cc1cccc(C2CCN(C(=O)Cn3nc(C(=O)N4CCOCC4)c4c3CCC4)CC2)c1C [Example 46, 1-(4-(2,3-dimethylphenyl)piperidin-1-yl)-2-(3-(morpholine-4-carbonyl)-5,6-dihydrocyclopenta[c]pyrazol-1(4H)-yl)ethan-1-one]",16 nM
7,"Cc1cccc(C2CCN(C(=O)Cn3nc(C(=O)N4CCN(C(=O)CO)CC4)c4c3CCC4)CC2)c1C [Example 47, 1-(4-(2,3-dimethylphenyl)piperidin-1-yl)-2-(3-(4-(2-hydroxyacetyl)piperazine-1-carbonyl)-5,6-dihydrocyclopenta[c]pyrazol-1(4H)-yl)ethanone]",17.6 nM
8,"Cc1cccc(C2CCN(C(=O)Cn3nc(C(=O)N4CC[C@H](O)C4)c4c3CCC4)CC2)c1C [Example 48, (S)-1-(4-(2,3-dimethylphenyl)piperidin-1-yl)-2-(3-(3-hydroxypyrrolidine-1-carbonyl)-5,6-dihydrocyclopenta[c]pyrazol-1(4H)-yl)ethan-1-one]",27 nM
9,"Cc1cccc(C2CCN(C(=O)Cn3nc(C(=O)N4CC[C@](C)(O)C4)c4c3CCC4)CC2)c1C [Example 49, (S)-1-(4-(2,3-dimethylphenyl)piperidin-1-yl)-2-(3-(3-hydroxy-3-methylpyrrolidine-1-carbonyl)-5,6-dihydrocyclopenta[c]pyrazol-1(4H)-yl)ethan-1-one]",29.8 nM
10,"Cc1cccc(C2CCN(C(=O)Cn3nc(C(=O)N4CC(C)(O)C4)c4c3CCC4)CC2)c1C [Example 50, 1-(4-(2,3-dimethylphenyl)piperidin-1-yl)-2-(3-(3-hydroxy-3-methylazetidine-1-carbonyl)-5,6-dihydrocyclopenta[c]pyrazol-1(4H)-yl)ethan-1-one]",40.1 nM
11,"Cc1cccc(C2CCN(C(=O)Cn3nc(C(=O)N4CC[C@@H](O)C4)c4c3CCC4)CC2)c1C [Example 51, (R)-1-(4-(2,3-dimethylphenyl)piperidin-1-yl)-2-(3-(3-hydroxypyrrolidine-1-carbonyl)-5,6-dihydrocyclopenta[c]pyrazol-1(4H)-yl)ethan-1-one]",45.5 nM
12,"Cc1cc(F)ccc1C1CCN(C(=O)Cn2nc(C(=O)N3CC[C@H](O)[C@@H](F)C3)c3c2CCC3)CC1 [Example 52, 1-(4-(4-fluoro-2-methylphenyl)piperidin-1-yl)-2-(3-((3S,4S)-3-fluoro-4-hydroxypiperidine-1-carbonyl)-5,6-dihydrocyclopenta[c]pyrazol-1(4H)-yl)ethanone]",111 nM
13,"Cc1cc(F)ccc1C1CCN(C(=O)Cn2nc(C(=O)N3CCC(O)(CF)CC3)c3c2CCC3)CC1 [Example 53, 1-(4-(4-fluoro-2-methylphenyl)piperidin-1-yl)-2-(3-(4-(fluoromethyl)-4-hydroxypiperidine-1-carbonyl)-5,6-dihydrocyclopenta[c]pyrazol-1 (4H)-yl)ethanone]",114 nM
14,"Cc1cc(F)ccc1C1CCN(C(=O)Cn2nc(C(=O)N3CC[C@@H](O)[C@H](F)C3)c3c2CCC3)CC1 [Example 54, 1-(4-(4-fluoro-2-methylphenyl)piperidin-1-yl)-2-(3-((3R,4R)-3-fluoro-4-hydroxypiperidine-1-carbonyl)-5,6-dihydrocyclopenta[c]pyrazol-1(4H)-yl)ethanone]",162 nM
15,"Cc1cc(F)ccc1C1CCN(C(=O)Cn2nc(C(=O)N3CC[C@@H](O)[C@@H](F)C3)c3c2CCC3)CC1 [Example 55, 1-(4-(4-fluoro-2-methylphenyl)piperidin-1-yl)-2-(3-((3S,4R)-3-fluoro-4-hydroxypiperidine-1-carbonyl)-5,6-dihydrocyclopenta[c]pyrazol-1(4H)-yl)ethanone]",166 nM
16,"Cc1cc(F)ccc1C1CCN(C(=O)Cn2nc(C(=O)N3CC[C@H](O)[C@H](F)C3)c3c2CCC3)CC1 [Example 56, 1-(4-(4-fluoro-2-methylphenyl)piperidin-1-yl)-2-(3-((3R,4S)-3-fluoro-4-hydroxypiperidine-1-carbonyl)-5,6-dihydrocyclopenta[c]pyrazol-1(4H)-yl)ethanone]",199 nM
17,"Cc1cc(F)ccc1C1CCN(C(=O)Cn2nc(C(=O)N3CCN(C(=O)CO)CC3)c3c2CCC3)CC1 [Example 57, 1-(4-(4-fluoro-2-methylphenyl)piperidin-1-yl)-2-(3-(4-(2-hydroxyacetyl)piperazine-1-carbonyl)-5,6-dihydrocyclopenta[c]pyrazol-1(4H)-yl)ethanone]",289 nM
18,"Cc1cc(F)ccc1C1CCN(C(=O)Cn2nc(C(=O)N3CCO[C@H](CO)C3)c3c2CCC3)CC1 [Example 58, (S)-1-(4-(4-fluoro-2-methylphenyl)piperidin-1-yl)-2-(3-(2-(hydroxymethyl)morpholine-4-carbonyl)-5,6-dihydrocyclopenta[c]pyrazol-1(4H)-yl)ethanone]",454 nM
19,"Cc1cccc(C2CCN(C(=O)Cn3nc(C(=O)N4CC[C@H](O)[C@H](F)C4)c4c3CCC4)CC2)c1C [Example 59, 1-(4-(2,3-dimethylphenyl)piperidin-1-yl)-2-(3-((3R,4S)-3-fluoro-4-hydroxypiperidine-1-carbonyl)-5,6-dihydrocyclopenta[c]pyrazol-1(4H)-yl)ethanone]",1.8 nM
20,"C[C@@H]1CN(C(=O)c2nn(CC(=O)N3CCC(F)(c4ccccc4)CC3)c3c2CCC3)C[C@H](C)O1 [Example 63, 2-[3-[(2R,6S)-2,6-dimethylmorpholine-4-carbonyl]-5,6-dihydro-4H-cyclopenta[c]pyrazol-1-yl]-1-(4-fluoro-4-phenyl-1-piperidyl)ethanone]",296 nM
21,"C[C@@H]1CN(C(=O)c2nn(CC(=O)N3CCC(C)(c4ccccc4)CC3)c3c2CCC3)C[C@H](C)O1 [Example 66, 2-{3-[(2R,6S)-2,6-dimethylmorpholine-4-carbonyl]-5,6-dihydrocyclopenta[c]pyrazol-1(4H)-yl}-1-(4-methyl-4-phenylpiperidin-1-yl)ethan-1-one]",43.5 nM
22,"C[C@@H]1CN(C(=O)c2nn(CC(=O)N3CCC(c4cc(F)cc(F)c4)CC3)c3c2CCC3)C[C@H](C)O1 [Example 67, 1-[4-(3,5-difluorophenyl)piperidin-1-yl]-2-{3-[(2R,6S)-2,6-dimethylmorpholine-4-carbonyl]-5,6-dihydrocyclopenta[c]pyrazol-1(4H)-yl}ethan-1-one]",52.4 nM
23,"C[C@@H]1CN(C(=O)c2nn(CC(=O)N3CCC(c4ccc(F)cc4)CC3)c3c2CCC3)C[C@H](C)O1 [Example 68, 2-{3-[(2R,6S)-2,6-dimethylmorpholine-4-carbonyl]-5,6-dihydrocyclopenta[c]pyrazol-1(4H)-yl}-1-[4-(4-fluorophenyl)piperidin-1-yl]ethan-1-one]",71.2 nM
